Reference: ChEMBL document CHEMBL1131535, “Conformation-function relationship of vitamin D: conformational analysis predicts potential side-chain structure” (1998)

Key:
[1] = tested on: HL-60; experiment: Relative differentiating activity of HL-60 cells when the reference value of […] is defined as 1.; format: functional, Homo sapiens
[2] = tested on: U-937; experiment: Relative differentiating activity of U 937 cells when the reference value of […] is defined as 1.; format: functional, Homo sapiens

SMILES	Relative differentiating activity [1]	Relative differentiating activity [2]
C=C1/C(=C\C=C2/CCCC3(C)C2CCC3[C@H](C)/C=C/CC(O)(C(F)(F)F)C(F)(F)F)C[C@@H](O)C[C@@H]1O (stereo not given in full)	30	–
C=C1/C(=C\C=C2/CCCC3(C)C2CCC3[C@@H](C)CCCCC(C)(C)O)C[C@@H](O)C[C@@H]1O (stereo not given in full)	–	200
C=C1/C(=C\C=C2/CCCC3(C)C2CCC3[C@H](C)CCCC(F)(F)C(C)(C)O)C[C@@H](O)C[C@@H]1O (stereo not given in full)	10	–
C=C1/C(=C\C=C2/CCCC3(C)C2CCC3[C@H](C)/C=C/CC(O)(CC)CC)C[C@@H](O)C[C@@H]1O (stereo not given in full)	60	–
C=C1/C(=C\C=C2/CCCC3(C)C2CCC3[C@@H](C)CCCCC(O)(CC)CC)C[C@@H](O)C[C@@H]1O (stereo not given in full)	–	200
C=C1/C(=C\C=C2/CCCC3(C)C2CCC3[C@@H](C)OCCCC(C)(C)O)C[C@@H](O)C[C@@H]1O (stereo not given in full)	–	1176
C=C1/C(=C\C=C2/CCCC3(C)C2CCC3[C@H](C)CCCCC(O)(CC)CC)C[C@@H](O)C[C@@H]1O (stereo not given in full)	–	5
C=C1/C(=C\C=C2/CCCC3(C)C2CCC3[C@H](C)/C=C/CCCC(C)(C)O)C[C@@H](O)C[C@@H]1O (stereo not given in full)	10	–
C=C1/C(=C\C=C2/CCCC3(C)C([C@H](C)CC#CC(C)(C)O)=CCC23)C[C@@H](O)C[C@@H]1O (stereo not given in full)	10	–
C=C1/C(=C\C=C2/CCCC3(C)C2CCC3[C@H](C)/C=C/CCC(C)(C)O)C[C@@H](O)C[C@@H]1O (stereo not given in full)	10	–
C=C1/C(=C\C=C2/CCCC3(C)C2CCC3[C@@H](C)/C=C/CCC(O)(CC)CC)C[C@@H](O)C[C@@H]1O (stereo not given in full)	–	1000
C=C1/C(=C\C=C2/CCCC3(C)C([C@H](C)CC#CC(O)(C(F)(F)F)C(F)(F)F)=CCC23)C[C@@H](O)C[C@@H]1O (stereo not given in full)	80	–
C=C1/C(=C\C=C2/CCC[C@]3(C)[C@@H](C(C)OCCCC(O)(CC)CC)CC[C@@H]23)C[C@@H](O)C[C@@H]1O (single isomer, unassigned) [LEXACALCITOL]	–	20
C=C1/C(=C\C=C2/CCC[C@]3(C)[C@@H]([C@@H](C)OCCCC(O)(CC)CC)CC[C@@H]23)C[C@@H](O)C[C@@H]1O [LEXACALCITOL]	–	20000
C=C1/C(=C\C=C2/CCC[C@]3(C)[C@@H]([C@H](C)/C=C/C=C/C(O)(CC)CC)CC[C@@H]23)C[C@@H](O)C[C@@H]1O [SEOCALCITOL]	–	67
